The record followed here is patent US11618894B2, “Bacteria engineered to reduce hyperphenylalaninemia” (Synlogic Operating Company, Inc., priority 2015, dated 2023).

Data set [1] is described as follows: Kinetics of phenylalanine in the enterocirculation model. It counts as in vivo, PKU (enu2) mice. The settings on record: subcutaneous 0.1 mg/g phenylalanine. As for the experimental part: To characterize the phenylalanine enterocirculation model, first the kinetics of serum levels of phenylalanine post phenylalanine challenger were assessed.
On day −6, PKU (enu2) mice were placed on phenylalanine-free chow and water (+)Phe (0.5 g/L)
On day 1, animals were bled to get T=0 (pre Phe challenge), and animals were randomized into two groups based on phenylalanine levels measured. The first treatment group (n=15) included mice for use for the 2, 6 and 24 hour post phenylalanine challenge time points; Group 2 (n=15) included mice for the 4 and 8 hour post phenylalanine challenge time points.
Mice were pre-weighed to obtain the average weight for each group. Phenylalanine was dosed at a concentration equal to average group weight. Animals were dosed subcutaneously with 0.1 mg/g phenylalanine. In Group 1, animals were bled at 2, 6 and 24 h post Phe challenge. In Group 2, animals were bled at 4 and 8 h post Phe challenge. Whisker plots in FIG. 38A and FIG. 38B show distribution of mouse blood phenylalanine levels (both overall phenylalanine levels (FIG. 38A) and change in phenylalanine levels from T0 (FIG. 38B). Phenylalanine levels were stably elevated over at least a 6 hour period. […]
On day −6, PKU mice were placed on phenylalanine-free chow and water (+)Phe (0.5 g/L). […] Animals were randomized into three treatment groups based on phenylalanine levels measured. […]

Data set [2] deals with hippurate. In words: Kinetics of hippurate recovery in urine, gavage of live cells vs pure TCA. It counts as in vivo, mice. An excerpt: FIG. 56 depicts a graph showing hippurate recovery in urine, and comparing kinetics of the generation of hippuric acid from phenylalanine through the gavage of live cells to the generation of hippuric acid derived from pure TCA gavage.
A short description of data set [3]: Turnover of orally gavaged TCA into hippuric acid, recovery in urine. The format is in vivo, Pah ENU2/2 mice. As for the experimental part:
To determine whether hippuric acid detection in the urine is suitable as a measure for in vivo cell activity and a potential biomarker, the extent of turnover of TCA into hippuric acid was assessed by oral gavage of various concentrations of TCA in PKU mice and subsequent measurement of TCA and hippuric acid by LC/MS.
Various TCA concentrations were administered by oral gavage.
Urine and feces were transferred to appropriate tubes and store samples on ice until processed for MS analysis.
Next, the kinetics of conversion of TCA to hippuric acid was assessed in a time course post pure TCA oral gavage. […] TCA concentrations were administered by oral gavage. […] Urine was transferred to appropriate tubes and store samples on ice until processed for MS analysis.

A short description of data set [4]: Oral gavage of TCA in PKU mice, recovery of TCA and hippuric acid in urine, feces and blood.
Method: Urine, feces, and blood were collected at 4 hours post gavage and analyzed for TCA and its major breakdown product, hippuric acid.
Animals were transferred to metabolic cages (3 mice per cage, 2 cages per group) and urine samples were collected at 1, 2, 3, 4, 5, 6 hours post TCA dose.
Where [5] appears, read: oral gavage 0.0125, 0.025, 0.05 or 0.1 mg/g TCA, 4 hours after gavage.

SMILES strings stand for the structures. Bounds are passed on as bounds.

`N[C@@H](Cc1ccccc1)C(=O)O` [Phenylalanine, phenylalanine]: the “period over which blood phenylalanine levels were stably elevated” value in data set [1] was no less than 6 h.
Turning to `O=C(O)/C=C/c1ccccc1` [TCA, Trans-cinnamic acid], the “time of rapid decrease in hippurate recovery in urine post collection start” value in data set [2] is no more than 15 min. Moreover, the “recovery of TCA in the form of hippurate in the urine” value in data set [3] (setting [5]) was “nearly full recovery”. Besides, in data set [3] (oral gavage of TCA, 4 h, data not shown), the “TCA and hippurate detected in blood and feces” value is reported as “Insignificant amounts”. The “recovery of TCA in the form of hippurate in urine” value in data set [4] (setting [5]) was “nearly full recovery”. In data set [4] (oral gavage 0.0125-0.1 mg/g TCA, 4 hours post gavage), the “TCA and hippurate in blood and feces” value was “Insignificant amounts”.
